Laboratory results from US20020143018A1 (priority 2000, published 2002).

Test system: Sarcocystis neurona strain SN3
Experiment: Microtiter Monolayer Disruption Assay (MMDA), inhibition of merozoite-induced cell destruction (CPE)
Type: cell-based
Conditions: S. neurona merozoites 50,000/well on BT cell monolayers, compound added 2 hours after infection, crystal violet readout, read-out: Percent Inhibition of Cell Destruction
Procedure: In order to determine the scope of protection provided by praziquantel, in vitro testing was conducted. Sarcocystis neurona was evaluated for its sensitivity to this compound. Strain SN3 of Sarcocystis neurona was used.
Bovine turbinate (BT) cells were used for all in vitro tests. Cells were grown to confluency in 25 cm^2 flasks in RMPI 1640 media supplemented with 10% v/v fetal bovine serum (FBS), 100 Units of penicillin (g/mL), […] and 5×10^−2 mM of 2-mercaptoethanol. After cell confluence was obtained, cells were maintained in the same media with reduced FBS (2% v/v). Cell cultures were incubated at 37 C. in a humidified atmosphere containing 5% carbon dioxide and 95% air.
For growth of the parasite, BT cell monolayers were infected with parasites and examined with an inverted microscope for the development of lesions (cytopathic effect, “CPE”) or the presence of many extracellular merozoites. Once lesions were observed, or many extracellular parasites were present, the monolayer was scraped with the tip of a 5 mL pipette and 1 to 3 drops of the merozoite-containing fluid was transferred to two flasks of fresh BT cells. […]
This assay was used to determine if the parasites or compound were toxic for BT cells. […] Each well was visually monitored daily and the assay was stopped when 90-100% of the untreated merozoite infected cells had lysed (90-100% CPE). […]

O=C(C1CCCCC1)N1CC(=O)N2CCc3ccccc3C2C1 (centres unmarked) [Praziquantel, praziquantel]
inhibition at 10 µg/mL (10 μg/mL): 51%
inhibition at 20 µg/mL (20 μg/mL): 69%
